Paper PMC5244392, “Interspecies cathelicidin comparison reveals divergence in antimicrobial activity, TLR modulation, chemokine induction and regulation of phagocytosis” (Scientific Reports, 2017)

How the values were obtained:
E. coli O78 = assay: Bacterial growth delay (Bioscreen C), E. coli; format: cell-based, Escherichia coli
Protocol: (§1) E. coli O78 (Zoetis Animal Health, Kalamazoo, MI, USA), E. coli ATCC 25922, Staphylococcus aureus ATCC 29213, and methicillin resistant Staphylococcus aureus (MRSA) (WKZ-2, human clinical isolate) were grown overnight from a glycerol stock in Mueller Hinton Broth (MHB) (Becton Dickinson, USA). Before use, bacteria were grown to mid-log phase in MHB for 2 hours at 37 °C, 200 RPM. Murine RAW264.7 macrophages (ATCC-TIB-71) were obtained from the American Type Culture Collection (ATCC, Manassas, VA, USA) and cultured in DMEM (41966-029; Thermo Fisher Scientific, Waltham, MA, USA) supplemented with 10% FCS (Bodinco B.V., Alkmaar, the Netherlands) (DMEM + FCS) at 37 °C, 5.0% CO2. Cells were seeded in 96-wells plates at 5 × 10^5 cells/ml or 12-wells plates at 2 × 10^5/ml for adherence overnight prior to stimulation.
(§2) Peptides (0.63 to 40 μM) and bacteria mid-log cultures (2 * 10^6 CFU/ml) were prepared in MHB or DMEM + FCS and mixed (100 μl peptide + 100 μl bacterial culture) in a Bioscreen C analyzer plate (Oy Growth Curves Ab Ltd, Helsingfors, Finland). Plates were placed in a Bioscreen C analyzer (Oy Growth Curves Ab Ltd) and bacteria were grown for 16 h at 37 °C with 200 RPM. The OD was measured every 15 minutes using a wideband filter (450–580 nm) to measure bacterial growth. The time needed grow above an OD of 0.6 was determined for all concentrations. Activity of peptides was expressed as the Cmax, the concentration of peptide required to delay the growth for 10 h compared to the control. Or, for peptides with low activity (no Cmax), activity was expressed as the hours of growth delay at 20 μM. Unlike the classic MIC and MBC determination used in microbiology, this method also enabled comparison of peptides with low antibacterial activity.
(§3) Twelve cathelicidins from 6 different species were selected for this study, namely: human LL-37, murine CRAMP, dog K9CATH, equine CATH (eCATH)-1, -2 and -3, chicken CATH (chCATH)-1, -2, and -3, porcine PMAP-23 and -36 and PR-39 (Table 1). Antimicrobial activity against E. coli and MRSA was directly compared under standardized conditions in MHB, a medium optimized for bacterial growth. Bacterial growth delay was defined as the delay in hours for peptide-treated bacteria to reach an OD of 0.6, compared to the non-treated control. Cmax is the minimal concentration needed to delay growth for a minimum of 10 hours compared to the non-treated control (Table 1 and Fig. 1A).
(§4) Figure 1 Antibacterial activity of cathelicidins. E. coli and MRSA (1 × 10^6 CFU/ml) of were grown in MHB or DMEM ± FCS for 16 hours under constant shaking (200 RPM). Every 15 minutes the OD was measured. Growth delay was defined as the time needed for peptide-treated bacteria to grow above an OD of 0.6 compared to the control bacteria (no peptide added) (A). Cathelicidins were tested in different concentrations (0.31 μM, 0.63 μM, 1.25 μM, 2.5 μM, 5 μM, 10 μM, and 20 μM) to determine the antimicrobial activity in MHB against E. coli (B) or MRSA (C) and in more physiological medium DMEM + FCS (D,E). Results are presented as average +/− SEM (N = 4).

[1] = system: methicillin resistant Staphylococcus aureus (MRSA) (WKZ-2, human clinical isolate); assay: Bacterial growth delay (Bioscreen C), MRSA; format: cell-based
Protocol: as §1, §2, §3, §4

[2] = system: CXCL10 (IP-10) release by RAW264.7 cells; assay: Cathelicidin induced CXCL10 release; format: cell-based, murine
Protocol: as §1
RAW264.7 cells were stimulated with 100 ng/ml LPS E. coli O111:B4, 1 μg/ml LTA S. aureus or 2.5 nM ODN-1826 in the presence of various concentrations of different cathelicidins. TNFα release was determined after 2 h for LPS and LTA stimulation and 24 h for ODN-1826 stimulation. CXCL10, CCL5 and IL-10 release were all determined after 24 h stimulation. As a control, RAW264.7 cells were stimulated for 2 h with 10^6 CFU/ml live or heat-killed (70 °C, 0.5 h) E. coli O78, followed by a double wash with cell culture medium and subsequent 22 h incubation in cell culture medium supplemented with 250 μg/ml gentamicin.
ELISA Duoset kits for mouse TNFα, CCL5, CXCL10 and IL-10 were obtained from R&D systems (Minneapolis, MN, USA) and ELISAs were performed according to the manufacturer’s protocol. Samples were stored at −20 °C until analysis and, if needed, diluted in 1% BSA in PBS, pH 7.4. Absorbance at 450 nm was determined in a FLUOstar Omega microplate reader (BMG Labtech GmbH) and corrected for absorbance at 570 nm. Results were analyzed with MARS data analysis software (BMG Labtech GmbH).
Since cathelicidins have membrane-perturbing properties which might affect the host’s cell membrane, first the possible cytotoxicity of the cathelicidins to RAW264.7 cells was assessed. […] Next, RAW264.7 cells were stimulated with the cathelicidins at various concentrations for 2 h and 24 h, after which release of CCL2 (MCP-1), CCL5 (RANTES), CXCL10 (IP-10), TNFα and IL-10 was determined.
Figure 2 Cathelicidin induced chemokine and cytokine release by RAW264.7 cells. RAW264.7 cells were incubated for 2 h and 24 h with cathelicidins (0.08 μM, 0.31 μM, 1.25 μM, 5 μM, and 20 μM), after which the supernatants were harvested and tested for release of CCL2 at 2 h (A) and 24 h (B), CCL5 at 24 h (C) and CXCL10 at 24 h (D). Dotted line represents average cytokine release of control samples. Results are presented as average +/− SEM (N = 3). Statistical differences were determined by Two-way ANOVA with Bonferroni post-hoc test.

[3] = DMEM + FCS, 20 μM peptide, given if no Cmax was reached, N = 4

RLKELITTGGQKIGEKIRRIGQRIKDFFKNLQPREEKS [Peptide K9CATH, dog cathelicidin, 38 residues, charge +6]
Max: hours growth delay with 20 μM cathelicidin, E. coli, DMEM (E. coli O78; [3]): 1.5 h | Activity against E. coli in MHB, in words (E. coli O78; MHB, peptide up to 20 μM): no or very little activity | Max: hours growth delay with 20 μM cathelicidin, E. coli, MHB (E. coli O78; MHB, 20 μM peptide, given if no Cmax was reached, time to OD 0.6 vs control, N = 4): 3.0 h | Max: hours growth delay with 20 μM cathelicidin, MRSA, DMEM [1, 3]: 4.5 h | Summary class, antimicrobial activity S. aureus DMEM ([1]; DMEM + FCS, MRSA, − is not defined in the key): + (+ = >4 hours inhibition at 20 μM) | Max: hours growth delay with 20 μM cathelicidin, MRSA, MHB ([1]; MHB, 20 μM peptide, given if no Cmax was reached, N = 4): 0.5 h | Increase of CXCL10 secretion after 24 h stimulation ([2]; 20 μM peptide, 24 h): 2–3 fold | Summary class, chemokines CXCL10 (24 h) ([2]; 24 h stimulation, peptide 0.08-20 μM, − = no significant effect, N = 3): ↑ (↑ = significant increase at 20 μM)
